The values below come from patent publication US20260217735A1, “HETEROCYCLES AND USES THEREOF” (Kumquat Biosciences Inc., priority 2023, published 2026).

One experiment deals with T1, KRAS WT (Homo sapiens, UniProt P01116).
T1 construct: made in house; host or cells: E. coli, e.g. BL21 (DE3)
Kind of experiment: HTRF assay, wildtype KRAS interaction with SOS1. The experiment is classed as biochemical. Conditions: bins <500 nM / 500 nM to 1000 nM, read-out: Inhibition of KRAS WT (IC50). The source says:
(§1) This assay can be also used to assess a selective inhibition or reduction of signaling output of a mutant Ras protein relative to a wildtype, or relative to a different mutant Ras protein. For example, the equilibrium interaction of wildtype KRAS or K-Ras mutant (e.g., wildtype or a mutant thereof) with SOS1 (e.g., hSOS1) can be assessed as a proxy or an indication for the ability of a subject compound to bind and inhibit Ras protein. The HTRF assay detects from (i) a fluorescence resonance energy transfer (FRET) donor (e.g., antiGST-Europium) that is bound to GST-tagged K-Ras mutant to (ii) a FRET acceptor (e.g., anti-6His-XL665) bound to a His-tagged hSOSL1.
(§2) The assay buffer can contain ~5 mM HEPES pH 7.4, ~150 mM NaCl, ~1 mM DTT, 0.05% BSA and 0.0025% (v/v) Igepal. A Ras working solution is prepared in an assay buffer containing typically a suitable amount of the protein construct (e.g., GST-tagged K-Ras mutant) and the FRET donor (e.g., antiGST-Eu(K) from Cisbio, France). A SOS1 working solution is prepared in an assay buffer containing suitable amount of the protein construct (e.g., His-hSOS1) and the FRET acceptor (e.g., anti-6His-XL665 from Cisbio, France). A suitable amount of the protein construct will depend on the range of activity or range of IC50 values being detected or under investigation. For detecting an IC50 within a range of 500 nM, the protein constructs of the same range of molarity can be utilized.
(§3) A fixed volume of DMSO with or without test compound is transferred into a 384-well plate. Ras working solution is added to all wells of the test plate. SOS1 working solution is added to all wells except for those that are subsequently filled with inhibitor control solution. Upon incubation for about 10 minutes or longer, the fluorescence is measured with a M1000Pro plate reader (Tecan) using HTRF detection (excitation 337 nm, emission 1: 620 nm, emission 2: 665 nm). Compounds are tested in duplicate at different concentrations (for example, 10 μM, 2.5 μM, 0.63 μM, 0.16 μM, 0.04 μM, 0.01 μM test compound). The ratiometric data (i.e., emission 2 divided by emission 1) is used to calculate IC50 values against Ras using GraphPad Prism (GraphPad software). Signaling output measured in terms of IC50 values can be obtained and a ratio of IC50 against one mutant relative to another mutant can be calculated. For instance, a selective reduction of K-Ras G12S signaling output can be evidenced by a ratio greater than one. In particular, a selective reduction of K-Ras G12S signaling relative to K-Ras WT signaling is evidenced if the ratio of IC50 (against K-Ras WT) to IC50 (against K-Ras G12S) is greater than 1.

The target of another experiment is T2, KRAS G12S (Homo sapiens, UniProt P01116, G12S).
T2 construct: made in house; host or cells: E. coli, e.g. BL21 (DE3)
T2 sequence (P01116 1-188 isoform P01116-2 G12S): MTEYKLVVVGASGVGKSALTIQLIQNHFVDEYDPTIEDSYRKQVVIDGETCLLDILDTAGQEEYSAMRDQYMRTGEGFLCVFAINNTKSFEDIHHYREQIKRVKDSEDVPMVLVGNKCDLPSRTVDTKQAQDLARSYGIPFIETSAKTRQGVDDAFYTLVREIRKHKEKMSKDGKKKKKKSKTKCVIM
The experiment is described as follows: HTRF assay, KRAS G12S interaction with SOS1. The experiment is classed as biochemical. The conditions noted are these: bins <500 nM / 500 nM to 1000 nM, read-out: Inhibition of KRAS G12S (IC50).
Source text: as §1, §2, §3
A general note: Time-resolved FRET reads energy transfer from a long-lived donor to a nearby acceptor.

The target of another experiment is T3, KRAS G12V (Homo sapiens, UniProt P01116, G12V).
T3 construct: made in house; host or cells: E. coli, e.g. BL21 (DE3)
T3 sequence (P01116 1-188 isoform P01116-2 G12V): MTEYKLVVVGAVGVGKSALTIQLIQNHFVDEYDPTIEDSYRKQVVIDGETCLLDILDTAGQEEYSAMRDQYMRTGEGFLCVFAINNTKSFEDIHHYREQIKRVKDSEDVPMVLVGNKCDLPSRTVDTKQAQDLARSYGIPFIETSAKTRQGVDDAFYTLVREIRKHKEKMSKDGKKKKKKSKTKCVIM
Kind of experiment: HTRF assay, KRAS G12V interaction with SOS1. It is filed as biochemical. The conditions noted are these: bins <500 nM / 500 nM to 1000 nM, read-out: Inhibition of KRAS G12V (IC50).
Source text: as §1, §2, §3

The next experiment deals with T4, KRAS G12D (Homo sapiens, UniProt P01116, G12D).
T4 construct: made in house; host or cells: E. coli, e.g. BL21 (DE3)
T4 sequence (P01116 1-188 isoform P01116-2 G12D): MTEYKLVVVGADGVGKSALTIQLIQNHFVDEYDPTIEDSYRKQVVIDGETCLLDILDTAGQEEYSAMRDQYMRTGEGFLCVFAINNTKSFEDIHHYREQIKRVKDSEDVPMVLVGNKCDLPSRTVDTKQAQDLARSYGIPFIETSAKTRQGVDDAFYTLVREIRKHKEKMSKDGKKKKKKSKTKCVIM
Kind of experiment: HTRF assay, KRAS G12D interaction with SOS1. It is filed as biochemical. Conditions: bins <500 nM / 500 nM to 1000 nM, read-out: Inhibition of KRAS G12D (IC50).
Source text: as §1, §2, §3

The subject of another experiment is MiaPaca2 cells. Kind of experiment: Ras cellular assay, growth of cells with K-Ras G12C mutation. It is filed as cell-based. Conditions: Homo sapiens, MIA PaCa-2; cell proliferation assay; bins ≤500 nM / >500 nM; read-out: Inhibition of MiaPaca2 Cells (IC50). Here is the method:
For example, this assay can be also used to assess selective growth inhibition of a mutant Ras protein relative to a wildtype or different mutant Ras protein.
MIA PaCa-2 (ATCC CRL-1420) and NCI-H1792 (ATCC CRL-5895) cell lines comprise a G12C mutation and can be used to assess Ras cellular signaling in vitro, e.g., in response to an inhibitor compound of the present disclosure. […] MIA PaCa-2 culture medium is prepared with DMEM/Ham's F12 (e.g., with stable glutamine, 10% FCS, and 2.5% horse serum. NCI-H1792 culture medium is prepared with RPMI 1640 (e.g., with stable glutamine) and 10% FCS.
On a first day (e.g., Day 1), Softagar (Select Agar, Invitrogen, 3% in ddH2O autoclaved) is boiled and tempered at 48° C. Appropriate culture medium (i.e., medium) is tempered to 37° C. Agar (3%) is diluted 1:5 in medium (=0.6%) and plated into 96 well plates (Corning, #3904), then incubated at room temperature for agar solidification. A 3% agar is diluted to 0.25% in medium (1:12 dilution) and tempered at 42° C. Cells are trypsinized, counted, and tempered at 37° C. The cells (e.g., MIA PaCa-2 at about 125-150 cells, NCI-H1792 at about 1000 cells) are resuspended in […] 0.25% Agar and plated, followed by incubation at room temperature for agar solidification. The wells are overlaid with […] of the medium. Sister wells in a separate plate are plated for time zero determination. All plates are incubated overnight at 37° C. and 5% CO2.
On a second day (e.g., Day 2), time zero values are measured. A […] volume of Cell Titer 96 Aqueous Solution (Promega) is added to each well and incubated in the dark at 37° C. and 5% CO2. Absorption can be measured at 490 nm and reference wavelength 660 nm. DMSO-prediluted test compounds are added to wells of interest, e.g., with HP Dispenser, to one or more desired concentrations (e.g., a final DMSO concentration of 0.3%).
On a tenth day (e.g., Day 10), absorption by wells treated with the test compounds and control wells are measured with, for example, Cell Titer 96 AQueous and analyzed in comparison to the time zero measurements. The IC50 values are determined using the four parameter fit. The resulting IC50 value is a measurement of the ability of the test compound to reduce cell growth of Ras-driven cells (e.g., tumor cell lines) in vitro and/or in vivo.

SMILES strings stand for the structures.

T1 sequence (P01116 1-188 isoform P01116-2): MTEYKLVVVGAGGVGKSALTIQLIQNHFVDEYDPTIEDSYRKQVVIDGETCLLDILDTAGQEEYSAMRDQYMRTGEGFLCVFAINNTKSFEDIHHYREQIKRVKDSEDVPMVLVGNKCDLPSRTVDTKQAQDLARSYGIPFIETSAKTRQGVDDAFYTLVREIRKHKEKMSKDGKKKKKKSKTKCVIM

In the case of `CCN(c1nc(OC[C@@]23CCCN2C[C@H](F)C3)nc2c(F)c(-c3ccc(F)c4sc(N)c(C#N)c34)c(C(F)(F)F)cc12)[C@@H]1CCN(C(=O)n2cnc(F)n2)[C@@H]1C` (atropisomer, axis not shown; (aS)) [Compound 125, 2-amino-4-((S)-4-(ethyl((2R,3R)-1-(3-fluoro-1H-1,2,4-triazole-1-carbonyl)-2-methylpyrrolidin-3-yl)amino)-8-fluoro-2-(((2R,7aS)-2-fluorotetrahydro-1H-pyrrolizin-7a(5H)-yl)methoxy)-6-(trifluoromethyl)quinazolin-7-yl)-7-fluorobenzo[b]thiophene-3-carbonitrile], the IC50 (usually the concentration that inhibits the measured activity by half) was < 500 nM at KRAS WT; < 500 nM on KRAS G12S; < 500 nM on KRAS G12V; < 500 nM on KRAS G12D; ≤ 500 nM in the experiment with MiaPaca2 cells.

For the molecule `CCN(c1nc(OC[C@@]23CCCN2C[C@H](F)C3)nc2c(F)c(-c3ccc(F)c4sc(N)c(C#N)c34)c(C(F)(F)F)cc12)[C@@H]1CCN(C(=O)n2ccc(Cl)n2)[C@@H]1C` (atropisomer, axis not shown; (aS)) [Compound 193, (S)-2-amino-4-(4-(((2R,3R)-1-(3-chloro-1H-pyrazole-1-carbonyl)-2-methylpyrrolidin-3-yl)(ethyl)amino)-8-fluoro-2-(((2R,7aS)-2-fluorotetrahydro-1H-pyrrolizin-7a(5H)-yl)methoxy)-6-(trifluoromethyl)quinazolin-7-yl)-7-fluorobenzo[b]thiophene-3-carbonitrile], the IC50 was < 500 nM on KRAS WT; < 500 nM on KRAS G12S; < 500 nM on KRAS G12V; < 500 nM on KRAS G12D; ≤ 500 nM with MiaPaca2 cells.

For the molecule `CN(c1nc(OC[C@@]23CCCN2C[C@H](F)C3)nc2c(F)c(-c3ccc(F)c4sc(N)c(C#N)c34)c(Cl)cc12)C1CN(C(=O)n2ccnc2)CC1F` (mixture of isomers) [Compound 214, 2-amino-4-(6-chloro-8-fluoro-4-((4-fluoro-1-(1H-imidazole-1-carbonyl)pyrrolidin-3-yl)(methyl)amino)-2-(((2R,7aS)-2-fluorotetrahydro-1H-pyrrolizin-7a(5H)-yl)methoxy)quinazolin-7-yl)-7-fluorobenzo[b]thiophene-3-carbonitrile], the IC50 on KRAS WT was < 500 nM; on KRAS G12S it was < 500 nM; at KRAS G12V, < 500 nM; on KRAS G12D, < 500 nM; in the experiment on MiaPaca2 cells, ≤ 500 nM.

For the molecule `C[C@@H]1[C@H](N(C)c2nc(OC[C@@]34CCCN3C[C@H](F)C4)nc3c(F)c(-c4ccc(F)c5sc(N)c(C#N)c45)c(Cl)cc23)CCN1C(=O)n1ccc(F)n1` [Compound 101, 2-amino-4-(6-chloro-8-fluoro-4-(((2R,3R)-1-(3-fluoro-1H-pyrazole-1-carbonyl)-2-methylpyrrolidin-3-yl)(methyl)amino)-2-(((2R,7aS)-2-fluorotetrahydro-1H-pyrrolizin-7a(5H)-yl)methoxy)quinazolin-7-yl)-7-fluorobenzo[b]thiophene-3-carbonitrile], the 50% inhibitory concentration (IC50) is < 500 nM on KRAS WT; < 500 nM on KRAS G12S; < 500 nM on KRAS G12V; < 500 nM on KRAS G12D; ≤ 500 nM with MiaPaca2 cells.

With `CCN(c1nc(OC[C@@]23CCCN2C[C@H](F)C3)nc2c(F)c(-c3ccc(F)c4sc(N)c(C#N)c34)c(Cl)cc12)[C@@H]1CCN(C(=O)n2cc(C#N)nc2C)[C@@H]1C` [Compound 102, 1-((2R,3R)-3-((7-(2-amino-3-cyano-7-fluorobenzo[b]thiophen-4-yl)-6-chloro-8-fluoro-2-(((2R,7aS)-2-fluorotetrahydro-1H-pyrrolizin-7a(5H)-yl)methoxy)quinazolin-4-yl)(ethyl)amino)-2-methylpyrrolidine-1-carbonyl)-2-methyl-1H-imidazole-4-carbonitrile], the IC50 on KRAS WT was < 500 nM; on KRAS G12S, < 500 nM; at KRAS G12V, < 500 nM; at KRAS G12D, < 500 nM; in the experiment on MiaPaca2 cells, ≤ 500 nM.

Take `CCN(c1nc(OC[C@@]23CCCN2C[C@H](F)C3)nc2c(F)c(-c3ccc(F)c4sc(N)c(C#N)c34)c(Cl)cc12)[C@@H]1CCN(C(=O)n2cc(C)nc2C#N)[C@@H]1C` [Compound 104, 1-((2R,3R)-3-((7-(2-amino-3-cyano-7-fluorobenzo[b]thiophen-4-yl)-6-chloro-8-fluoro-2-(((2R,7aS)-2-fluorotetrahydro-1H-pyrrolizin-7a(5H)-yl)methoxy)quinazolin-4-yl)(ethyl)amino)-2-methylpyrrolidine-1-carbonyl)-4-methyl-1H-imidazole-2-carbonitrile]: the IC50 was < 500 nM on KRAS WT; < 500 nM on KRAS G12S; < 500 nM at KRAS G12V; < 500 nM at KRAS G12D; ≤ 500 nM with MiaPaca2 cells.

As for `CCN(c1nc(OC[C@@]23CCCN2C[C@H](F)C3)nc2c(F)c(-c3ccc(F)c4sc(N)c(C#N)c34)c(Cl)cc12)[C@@H]1CCN(C(=O)n2ccnc2)[C@@H]1C` [Compound 106, 4-(4-(((2R,3R)-1-(1H-imidazole-1-carbonyl)-2-methylpyrrolidin-3-yl)(ethyl)amino)-6-chloro-8-fluoro-2-(((2R,7aS)-2-fluorotetrahydro-1H-pyrrolizin-7a(5H)-yl)methoxy)quinazolin-7-yl)-2-amino-7-fluorobenzo[b]thiophene-3-carbonitrile], the IC50 at KRAS WT is < 500 nM; on KRAS G12S it was < 500 nM; on KRAS G12V it was < 500 nM; at KRAS G12D, < 500 nM; in the experiment with MiaPaca2 cells it was ≤ 500 nM.
